Measurements taken from patent EP0028270A1, “Pyrazino-carbazoles, process for their preparation and pharmaceutical compositions containing them” (CASSELLA Aktiengesellschaft, priority 1979, dated 1981).

Legend:
Tetrabenazin = assay: Tetrabenazine antagonism (antidepressant activity); assay type: in vivo; conditions: for ED50: no unit, species or route given, read-out: Tetrabenazin Dosis Antagonismus ED50; for LD50/ED50: ratio of LD50 to tetrabenazine antagonism ED50
Acute toxicity (LD50) = assay type: in vivo; conditions: no unit, species or route given

Compound | ED50 (Tetrabenazin) [mg/kg] | LD50/ED50 (Tetrabenazin) | LD50 (Acute toxicity (LD50)) [mg/kg]
Cc1ccc2c(c1)c1c3n2CCNC3CCC1.Cl (centres unmarked) [8-Methyl-2,3,3a,4,5,6-hexahydro-1H-pyrazino[3,2,1-jk]-carbazol-Hydrochlorid, reference compound] | 14 | 8,7 | 
Cc1ccc2c(c1)c1c3n2CCN=C3CCC1.Cl [Beispiel 1, 8-Methyl-2,4,5,6-tetra-hydro-1H-pyrazino[3,2,1-jk]carbazol-Hydrochlorid] | 4 | 18,0 | 72
COc1ccc2c(c1)c1c3n2CCN=C3CCC1.Cl [Beispiel 2, 8-Methoxy-2,4,5,6-tetra-hydro-1H-pyrazino[3,2,1-jk]carbazol-Hydrochlorid] | 2 | 18,5 | 37
